Results on 80 compounds are retold here after PubChem BioAssay AID1645863 (Buhrlage Lab, Dana-Farber Cancer Institute and Novartis …, 2021).

Activity calls are given as the source filed them. No rule for the calls is given here.

The target of the assay is Ubiquitin carboxyl-terminal hydrolase 10 (Homo sapiens) (UniProt Q14694). Kind of assay: ubiquitin-specific protease 10 DUB inhibitors, concentration-effect, biochemical, verification of primary screen actives (AID 1645863).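 Also: potency values describe inhibition of USP10 cleavage of a fluorogenic ubiquitin substrate.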 Conditions: USP10 deubiquitinase enzymatic assay.
Sequence of Ubiquitin carboxyl-terminal hydrolase 10 (Homo sapiens) (Q14694 whole entry, looked up): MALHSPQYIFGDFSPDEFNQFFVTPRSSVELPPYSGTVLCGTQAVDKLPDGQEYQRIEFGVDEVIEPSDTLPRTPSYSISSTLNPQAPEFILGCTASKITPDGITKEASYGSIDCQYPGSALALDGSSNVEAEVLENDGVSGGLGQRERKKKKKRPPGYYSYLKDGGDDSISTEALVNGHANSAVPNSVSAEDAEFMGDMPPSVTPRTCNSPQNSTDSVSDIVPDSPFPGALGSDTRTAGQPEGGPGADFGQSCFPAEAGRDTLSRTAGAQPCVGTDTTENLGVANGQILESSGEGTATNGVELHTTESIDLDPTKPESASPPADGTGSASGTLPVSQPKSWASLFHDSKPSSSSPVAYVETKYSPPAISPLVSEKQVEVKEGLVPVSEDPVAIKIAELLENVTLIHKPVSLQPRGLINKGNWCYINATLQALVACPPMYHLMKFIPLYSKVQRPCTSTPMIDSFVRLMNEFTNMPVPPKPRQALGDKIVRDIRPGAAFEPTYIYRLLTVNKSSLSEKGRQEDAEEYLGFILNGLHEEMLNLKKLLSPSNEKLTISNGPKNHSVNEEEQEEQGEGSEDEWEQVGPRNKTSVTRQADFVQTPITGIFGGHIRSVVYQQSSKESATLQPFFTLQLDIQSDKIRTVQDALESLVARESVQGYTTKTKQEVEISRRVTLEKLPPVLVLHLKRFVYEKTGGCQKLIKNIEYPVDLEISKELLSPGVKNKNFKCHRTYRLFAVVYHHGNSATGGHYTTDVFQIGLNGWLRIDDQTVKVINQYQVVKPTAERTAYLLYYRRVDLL
With `COc1ccccc1NC(=O)CSC1=NC2(CCCCC2)Nc2ccccc21`, the IC50 is > 40 µM (inactive).
The same measure for `CCOC(=O)N1CCC(NC(=O)c2cc(C(=O)Nc3ccc(S(=O)(=O)N4CCCCC4)cc3)ccc2CO)CC1`: > 40 µM (inactive).
As to `Cc1nc2c(nnn2C[C@H]2CCCN2C(=O)c2ccc(F)cc2)c(=O)[nH]1`, the IC50 was > 40 µM (inactive).
For `Cc1ccc(NC(=O)Nc2ccc(C)n(CC(=O)Nc3cc(C)ccc3C)c2=O)cc1`, the IC50 is > 40 µM (inactive).
In the case of `COc1ccc(NC(=O)Cn2c(=O)n(-c3ccc(CC(=O)NCc4ccco4)cc3)c(=O)c3ccccc32)cc1Cl`, the IC50 was 15.1 µM.
Turning to `CCOc1ccc2[nH]c(=O)c(-c3nc4ccc(C)cn4c3NCc3ccccc3)cc2c1`, the IC50 is > 40 µM (inactive).
On to `CN(C)[C@@H]1C(=O)C(C(N)=O)=C(O)[C@@]2(O)C(=O)C3=C(O)c4c(O)cccc4[C@@](C)(O)C3[C@H](O)[C@@H]12` (stereo not given in full), for which the IC50 is 1.1 µM.
Regarding `O=C(COc1cccc(-c2noc(-c3ccc([N+](=O)[O-])cc3)n2)c1)Nc1ccccc1`, the IC50 is > 40 µM (inactive).
Take `COc1cccc(NC(=O)Cn2cc(C(=O)c3ccc(C)cc3)c(=O)c3cc(Cl)ccc32)c1`: the concentration for half-maximal inhibition (IC50) was 11.2 µM.
Turning to `O=C(Cn1cnc2cc([N+](=O)[O-])ccc2c1=O)NCc1ccc2c(c1)OCO2`, the IC50 is > 40 µM (inactive).
`N=C1/C(=C/c2cn(Cc3ccccc3)c3ccccc23)C(=O)N=C2SC(C(F)(F)F)=NN12`: the IC50 is > 40 µM (inactive).
Take `O=C(/C=C/c1cccc([N+](=O)[O-])c1)N1CCc2ccccc21`: the IC50 was > 40 µM (inactive).
The same measure for `Cn1c(=O)c2ncnnc2n(C)c1=O`: 3.09 µM; for `O=C(Nc1cccc(Cl)c1)c1cc(-c2cccnc2)n[nH]1`: > 40 µM (inactive); for `O=C1C(=O)N(c2nc3ccc(F)cc3s2)C(c2ccc(F)cc2)/C1=C(\O)c1ccc(F)cc1` (stereo not given): 11.5 µM.
For the compound `COc1ccc(-n2ccn3c(CCC(=O)Nc4cccc(C)c4)nnc3c2=O)cc1`, the IC50 was > 40 µM (inactive).
Regarding `O=c1c2cc(Br)ccc2[nH]c(=S)n1Cc1cccnc1`, the IC50 is > 40 µM (inactive).
With `CSCCC(NC(=O)c1ccccc1)c1nc2ccccc2n1CC(=O)Nc1ccccc1` (stereo not given), the IC50 is 35.9 µM.
With `O=C(Cn1c(=O)c2sccc2n(Cc2ccc([N+](=O)[O-])cc2)c1=O)NCCc1ccccc1`, the IC50 is > 40 µM (inactive).
The same measure for `COc1cccc(NC(=O)c2cnc(N3CCCC3)nc2C)c1`: > 40 µM (inactive).
For `COc1ccccc1CNC(=O)CCCCn1c(=O)c2ccccc2n(Cc2ccc(C)cc2)c1=O` the value was 20.8 µM.
In the case of `Oc1cccc2c(-c3ccc(O)c4c(O)cccc34)ccc(O)c12`, the IC50 is > 40 µM (inactive).
As to `Cn1c(=O)c2nc(-c3ccc(Cl)cc3)nnc2n(C)c1=O`, the concentration for half-maximal inhibition (IC50) was 3.21 µM.
Turning to `N#Cc1cccc(NC(=O)Cn2cccc2-c2nc(-c3ccccc3)no2)c1`, the IC50 is > 40 µM (inactive).
With `O=C(Nc1ccc(Br)cc1F)c1ccc(S(=O)(=O)N2CCCC2)cc1`, the IC50 is > 40 µM (inactive).
For the compound `CCCN1CCN(C(=O)Cn2c(C)ccc(NC(=O)c3ccccc3)c2=O)CC1`, the IC50 is > 40 µM (inactive).
For `CSc1ccc(CNC(=O)Cn2c(=O)[nH]c3c(-c4ccccc4)c[nH]c3c2=O)cc1` the value was > 40 µM (inactive); for `COc1cc2cc3c(c(O)c2c(O)c1-c1c(OC)cc2cc4c(c(O)c2c1O)C(=O)OC1CC(C)OC41)C(=O)OC1CC(C)OC31` (stereo not given), 9.21 µM; for `COC(=O)c1ccc(NC(=O)/C=C/c2ccc(F)cc2)cc1`, > 40 µM (inactive).
For `Cc1nc(SCC(=O)NC(C)c2ccccc2)c2oc3ccccc3c2n1` (stereo not given) the value was > 40 µM (inactive); for `CC(C)n1cc(CN2CCC(C(=O)Nc3cccc(-c4cccc(Cl)c4)c3)CC2)cn1`, > 40 µM (inactive); for `Cc1ccc(NC(=O)Nc2ccccc2OCc2cc(=O)n3cc(C)ccc3n2)cc1`, > 40 µM (inactive).
Regarding `NS(=O)(=O)c1ccc(CNS(=O)(=O)/C=C/c2ccccc2)cc1`, the IC50 is > 40 µM (inactive).
The same measure for `O=C(c1ccco1)N1CCC2(CC1)CC1(CO2)Nc2ccccc2-n2cccc21` (stereo not given): > 40 µM (inactive); for `Cn1c(=O)n([C@@H](Cc2ccccc2)C(=O)N[C@@H](C(=O)O)c2ccc(O)cc2)c(=O)c2ccccc21`: > 40 µM (inactive); for `O=C(Nc1ccccc1-c1nc2ccccc2[nH]1)c1sc2ccccc2c1Cl`: 9.23 µM.
On to `Cc1cc(NS(=O)(=O)c2ccc(NC(=O)COc3ccc(Cl)cc3)cc2)no1`, for which the IC50 is > 40 µM (inactive).
`Cc1nc(-c2noc(-c3cccc(F)c3)n2)cn1CC(=O)Nc1ccccc1`: the half-maximal inhibitory concentration (IC50) is 15.8 µM.
As to `CC/C=C\C/C=C\C/C=C\CCCCCCCC(=O)O`, the half-inhibitory concentration (IC50) is 11.9 µM.
As for `O=C(Cn1c(=O)[nH]c2c(-c3ccc(F)cc3)c[nH]c2c1=O)NCc1ccc(F)cc1`, the IC50 is > 40 µM (inactive).
Regarding `Cc1ccc(NC(=O)Cc2nnc3c(-c4nc(C5CC5)no4)cccn23)cc1F`, the IC50 is 31.5 µM.
In the case of `CSC1SCC2C(=O)N(C)C(C(C)C(C)C)C(=O)OCC(NC(=O)c3cnc4ccccc4n3)C(=O)NC(C)C(=O)N(C)C1C(=O)N(C)C(C(C)C(C)C)C(=O)OCC(NC(=O)c1cnc3ccccc3n1)C(=O)NC(C)C(=O)N2C` (stereo not given), the IC50 was 19.3 µM.
For `O=C(NCc1ccc2c(c1)OCO2)c1[nH]nc2c1COc1ccccc1-2` the value was 15.2 µM; for `COc1ccc2[nH]c(=O)c(CN(C)C(=O)c3ccc([N+](=O)[O-])cc3)cc2c1`, > 40 µM (inactive); for `COC(=O)Nc1cccn(Cc2c(Cl)cccc2Cl)c1=O`, > 40 µM (inactive).
Take `COCC(=O)N1CCC(n2c(C3CC3)nc3sc(C)c(C)c3c2=O)CC1`: the IC50 was > 40 µM (inactive).
Turning to `CCC(=O)Nc1nc2cc(NC(=O)Nc3cccc(C)c3)ccc2s1`, the IC50 was 18.8 µM.
For `O=C(Nc1cccc(-c2nc3cnccc3o2)c1)c1ccc(Br)o1` the value was > 40 µM (inactive); for `O=C(c1cnc2ccccc2n1)N1CCC(S(=O)(=O)c2ccc(-c3ccco3)cc2)CC1`, > 40 µM (inactive).
For `COc1ccc(NC(=O)Cn2c(=O)n(CCCC(=O)NCCc3ccc(OC)c(OC)c3)c(=O)c3ccccc32)cc1Cl` the value was > 40 µM (inactive).
For `CSc1cccc(NC(=O)C2C3C=CC4(O3)C2C(=O)N(CCc2ccccc2)C4C(=O)NC2CCCCC2)c1` (stereo not given) the value was > 40 µM (inactive); for `COc1cc(Cl)c(NC(=O)C2Cc3ccccc3N2C(=O)c2ccccc2)c(OC)c1` (stereo not given), 26.9 µM; for `CCOc1ccc2c(c1)c(=O)c(C(=O)c1ccccc1)cn2CC(=O)Nc1ccc2c(c1)OCCO2`, 22.5 µM.
For `O=C1CC(C(=O)Nc2ccc3c(c2)OCO3)n2nc(SCc3ccccc3)nc2N1` (stereo not given), the IC50 is > 40 µM (inactive).
As to `Cc1ccccc1Cn1c(=O)n(CC2CCC(C(=O)NC3CCCC3)CC2)c(=O)c2ccccc21` (stereo not given), the IC50 is > 40 µM (inactive).
With `CSc1nc(N)c2c(n1)N[C@H]1OC[C@H](O)[C@H](O)[C@H]1N2`, the IC50 is > 40 µM (inactive).
On to `CC1=C(Cn2c3cccc(=O)c-3nc3ccccc32)CCC(C)(C)C1`, for which the IC50 is 5.79 µM.
On to `COc1cccc2cc(-c3nnc(SCC(=O)c4ccc(F)cc4)n3C)oc12`, for which the IC50 is > 40 µM (inactive).
In the case of `Cc1cc(=O)[nH]c(SCC(=O)c2cc(C)n(CCC3=CCCCC3)c2C)c1C#N`, the IC50 was > 40 µM (inactive).
As to `Cc1ccc2c(c1)c(=O)c(C(=O)c1ccccc1)cn2CC(=O)Nc1ccc2c(c1)OCCO2`, the IC50 is > 40 µM (inactive).
As for `Nc1ccc(C(=O)OCC(=O)NC2CCCc3ccccc32)cc1[N+](=O)[O-]` (stereo not given), the IC50 is 37.7 µM.
The same measure for `CC(C)(C)C(=O)C1C2C(=O)N(c3ccc4c(c3)OCO4)C(=O)C2C2c3ccccc3C=CN12` (stereo not given): > 40 µM (inactive); for `Cc1ccc(CNC(=O)c2cccc(N3C(=O)N4CCc5c([nH]c6ccccc56)[C@@]4(C)C3=O)c2)cc1`: > 40 µM (inactive).
Take `COc1ccc(Sc2nc3ccccc3n3cnnc23)cc1`: the IC50 is > 40 µM (inactive).
On to `COc1ccc(C)cc1NC(=O)Nc1nnc(CC(=O)NCc2ccccc2)s1`, for which the IC50 is > 40 µM (inactive).
`Cc1ccc2c(c1)N(C)C(=O)c1cc(NC(=O)c3ccc(F)cc3)ccc1O2`: the IC50 is 12.8 µM.
`CCc1ccc(NC(=O)Cn2c(=O)n(Cc3ccccc3)c(=O)c3nn(CC)cc32)cc1`: the IC50 is > 40 µM (inactive).
As to `Cc1cccc(NC(=O)Nc2ccc(C)n(CC(=O)Nc3ccc(C)c(C)c3)c2=O)c1`, the IC50 is > 40 µM (inactive).
`Cc1ccc(-n2cc(-c3noc(C(=O)Nc4ccc(F)cc4C)n3)nn2)cc1`: the half-inhibitory concentration (IC50) is 10.1 µM.
For `N=C1/C(=C/c2cn(Cc3ccc(F)cc3)c3ccccc23)C(=O)N=C2SC(Cc3ccccc3)=NN12`, the IC50 is 17.4 µM.
Turning to `Cc1ccc(-c2nnc3ccc(SCC(=O)N4CCCc5ccccc54)nn23)cc1`, the IC50 was > 40 µM (inactive).
Take `Cc1cc(=O)n(CC(=O)Nc2ccccc2C)c(Nc2ccc(F)cc2)n1`: the IC50 is 28.4 µM.
Turning to `O=C(O)C1C(C(=O)Nc2ccccc2)C2(c3ccccc3)C(=O)C1(c1ccccc1)C(c1ccccc1)=C2c1ccccc1` (stereo not given), the IC50 is 4.25 µM.
`CN(C)c1ccc(S(=O)(=O)N2CCCCC2)cc1NC(=O)COc1ccccc1`: the IC50 was > 40 µM (inactive).
In the case of `CCOCc1ccc(C(=O)N[C@H](C)c2nc3cc(-c4ccc(OC)cc4)ncn3n2)cc1`, the IC50 was > 40 µM (inactive).
For `Cc1cccc(NC(=O)Nc2ccccc2OCc2cc(=O)n3cccc(C)c3n2)c1`, the IC50 was 27.1 µM.
As to `NS(=O)(=O)c1ccc(CNC(=O)c2ccc(Cl)c(S(=O)(=O)Nc3cc(Cl)ccc3Cl)c2)cc1`, the IC50 was 26.4 µM.
For `CCn1cc2c(n1)c(=O)n(Cc1ccc(C)cc1)c(=O)n2CC(=O)Nc1ccc(F)cc1`, the IC50 was > 40 µM (inactive).
As to `CC(C)CC1NC(=O)C2CCCN2C1=O` (stereo not given), the IC50 was > 40 µM (inactive).
As for `COc1ccc(Cl)cc1NC(=O)Cn1c(=O)n(CCC(=O)NC2CCCC2)c(=O)c2ccccc21`, the IC50 is > 40 µM (inactive).
